Entries after “also recorded” stand apart in the source; their conditions may differ.

Test [1] relates to embryonic avian tibias. Nature of the test: LPS-induced cartilage degradation in tibia organ cultures. In kind it is cell-based, Chick. As for the experimental part:
The purpose of this study was to test the ability of calcium channel blocker BDA to inhibit cartilage degradation in embryonic avian tibias maintained in organ culture in the presence of lipopolysaccharide (LPS). Chick tibiotarsi were removed from 12 day embryos and their tarsal regions removed. These bones were maintained in organ culture as previously described (26-28). Four bones were placed in each well of a 24-well plate and cultured in 1 ml of DMEM supplemented with 50 μg/ml ascorbate and 10 μg/ml LPS (E. coli serotype 0111 :B4, catalog #L-3012, Sigma, St. Louis). The culture medium with fresh supplements was changed every other day. BDA was dissolved in DMSO at a stock concentration of 2 mM. BDA was added to the culture medium on all feeding days and tested at two concentrations, 0.5 and 2 μM. Control cultures received an equivalent concentration of DMSO. The loss of cartilage from the embryonic bones was measured as the release of proteoglycans and collagen (hydroxyproline) into the culture medium. The spent culture medium was collected with each medium change. The proteoglycan content of the culture medium was determined by a dimethyl methylene blue dye-binding assay (25). The hydroxyproline was measured by a colorimetric assay in 96 well plates (29).

Test [2] deals with OP-1. Put plainly: endogenous OP-1 in IL-1β challenged cartilage explants (western blot). In kind it is cell-based, human. As for the experimental part: Full thickness articular cartilage was dissected from load bearing regions of the femoral condyles of donors with no history of joint disease within 24 hours of death. Samples from men and women (age 50 to 76) were obtained from the Regional Organ Bank of Illinois as described above. After opening the joint, the surface of the cartilage was examined grossly. The appearance of each joint was given a grade based on the Collins scale (30) as modified by Muehleman et al (31).
Tissue explants (3×3 mm) were prepared as described above and were cultured in Dulbecco's modified Eagle's medium/Hams' F12 (1/1) containing 10 ml/L of Insulin Transferrin Selenium A (ITS, Gibco), 25 μg/ml ascorbate, and 50 μg/ml gentamicin. Experimental cultures contained either recombinant human IL-1β (Genzyme), BDA compound in DMSO, or a combination of IL-1β and BDA. ITS containing medium was used to reduce or eliminate serum-contained growth factors that could mask the released OP-1 or OP-1 degradation products and create nonspecific binding of the antibodies. To reach a steady state, cartilage explants were cultured in the absence of IL-1β or BDA for 4 days (or 96 hours) followed by two days (or 48 hours) of culture with IL-1β, BDA or both IL-1β and BDA. DMSO was added to the media control groups to account for a possible effect of DMSO.
Articular cartilage explants were briefly washed with 0.9% saline, homogenized and extracted in 1 M guanidine hydrochloride in the presence of proteinase inhibitors (0.1 M ε-aminocaproic acid, 0.05 M sodium acetate, 0.005 M EDTA, 0.005 M benzamidine chloride, 0.01 M N-ethylmaleimide, 0.0005 M phenymethanesulfonyl fluoride) at pH 7.4. Samples were extracted for 3 h in the refrigerator, and the extracts, together with the media, were dialyzed against water for 48 hours at 2-8° C., lyophilized and solubilized in sample buffer (0.01 M Tris HCl, pH 6.5, 1% sodium dodecyl sulfate (SDS), 10% glycerol, 0.016% bromphenol blue, 8 M urea, 0.2 M sodium chloride with (for the reduced conditions) or without (for non-reduced conditions) dithioerythritol added (DTT), pH 6.8). Cartilage extracts and media were analyzed by western blotting. All samples were normalized to the protein concentration. Protein concentrations was determined by a colorimetric assay, using BSA as a standard (Pierce, Rockford, Ill.).
Aliquots of samples (30 μg of protein per lane) were analyzed by electrophoresis and immunoblotting. Samples were loaded onto a 12% SDS-polyacrylamide gel (PAGE) in a buffer containing 0.2 M glycine, 25 mM Tris and 3.5 mM SDS. Proteins were transferred from SDS-PAGE gels onto nitrocellulose transfer membranes overnight at 20 V, 4-8° C. in a buffer containing 12 mM Tris (pH 7.4), 6 mM Na acetate, and 0.3 mM EDTA at pH 7.4. Immunoblot analyses was done using OP-1 antibodies. […]
On the technique in general: In western blotting, separated proteins are transferred to a membrane and probed.

Test [3] has as its target T1, annexin V (Homo sapiens, UniProt P08758).
T1 sequence (P08758 1-320): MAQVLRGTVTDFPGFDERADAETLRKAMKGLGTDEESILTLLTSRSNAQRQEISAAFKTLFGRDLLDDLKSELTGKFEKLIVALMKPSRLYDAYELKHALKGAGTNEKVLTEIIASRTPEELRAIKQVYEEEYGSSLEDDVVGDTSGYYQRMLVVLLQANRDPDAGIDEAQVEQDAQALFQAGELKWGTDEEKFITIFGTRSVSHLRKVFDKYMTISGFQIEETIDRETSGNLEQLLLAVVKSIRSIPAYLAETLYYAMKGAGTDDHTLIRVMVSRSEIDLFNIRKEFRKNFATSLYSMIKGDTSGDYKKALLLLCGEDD
Put plainly: calcium ion flux assay in artificial vesicles containing annexin V (Calcium Green fluorescence). In kind it is biochemical. Particulars: 180 ug/ml Annexin V, 100 ug/ml CII Peptide where present, 2 hours. As to the method: Artifical vesicles containing annexin were prepared according to methods known in the art. Specifically, vesicles were prepared by drying down lipids (Avanti Polar Lipids) with nitrogen overlay. Lipids were washed once in ether and further dried under vacuum overnight. Lipids were then sonicated on ice in NMDG Buffer (150 mM N Methyl D Glucamine, and 10 mM Hepes, adjusted to ph 7.4 with HCl, then diluted to 100 mOSM with water) containing 300μM Calcium Green dye (Molecular Probes). Extravesicular dye was removed by Biobead extraction for 20 minutes.
Vesicles were diluted 1:100 in NMDG Buffer, mixed with Annexin V with or without collagen fragments (CII peptide), and incubated for 2 hours. Ca^++ fluxes were measured according to Kaneko et al.. Fluorescence was measured in a 96 well plate using the Flipr plate reader.

In test [4] the target is T2, annexin I (Homo sapiens, UniProt P04083).
T2 sequence (P04083 1-346): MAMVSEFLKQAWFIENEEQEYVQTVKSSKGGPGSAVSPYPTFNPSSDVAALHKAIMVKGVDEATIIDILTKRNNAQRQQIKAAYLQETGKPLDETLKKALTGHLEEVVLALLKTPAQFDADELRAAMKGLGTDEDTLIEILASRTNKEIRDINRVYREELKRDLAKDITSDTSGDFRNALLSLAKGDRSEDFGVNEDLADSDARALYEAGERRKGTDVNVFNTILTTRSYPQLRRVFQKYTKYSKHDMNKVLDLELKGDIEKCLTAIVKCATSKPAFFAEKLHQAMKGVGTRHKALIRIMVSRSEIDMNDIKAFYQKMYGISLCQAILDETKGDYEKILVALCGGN
Particulars: liposomes; cited from earlier work.

The target in test [5] is T1, annexin V. The following applies: liposomes; cited from earlier work.
Test [6] deals with T3, annexin III (Homo sapiens, UniProt P12429).
T3 sequence (P12429 1-323): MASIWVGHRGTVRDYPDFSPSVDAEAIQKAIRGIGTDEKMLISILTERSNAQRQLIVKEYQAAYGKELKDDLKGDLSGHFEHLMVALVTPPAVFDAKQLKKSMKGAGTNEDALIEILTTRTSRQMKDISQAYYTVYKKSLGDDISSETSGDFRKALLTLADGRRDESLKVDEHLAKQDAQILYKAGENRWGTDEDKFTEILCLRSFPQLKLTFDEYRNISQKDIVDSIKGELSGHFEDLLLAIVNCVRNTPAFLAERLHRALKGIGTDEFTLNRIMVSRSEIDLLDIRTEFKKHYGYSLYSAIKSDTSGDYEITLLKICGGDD
The following applies: liposomes; cited from earlier work.

Regarding `CN1C(=O)C(NC(=O)C(N)Cc2c[nH]c3ccccc23)C=C(c2ccccc2)c2ccccc21` (centres unmarked) [BDA], the “LPS induced proteoglycan release to the culture medium” value in test [1] (0.5 μM, compared to DMSO carrier control) is on record as “intermediate loss; also recorded: intermediate amount”; in test [1] (2 μM) it was “least release”; in test [1] (0.5 and 2 μM, dose dependence) it was “dose-dependent inhibition”. Moreover, the “LPS induced collagen (hydroxyproline) release” value is reported as “intermediate degree of collagen release” in test [1] (0.5 μM, feeding day 15); “least collagen loss” in test [1] (2 μM, feeding day 15); “dose-dependent inhibition” in test [1] (0.5 and 2 μM, dose dependence). Moreover, in test [1] (0.5 and 2 μM, dose dependence), the “LPS induced cartilage loss (release of hydroxyproline or proteoglycan)” value is on record as “dose-dependent inhibition”. In addition, the “size of the bone and cartilage at the end of the experiments” value in test [1] (LPS cultures) is “increased size of the bone and cartilage”. Besides, in test [2] (culture media), the “release of pro-OP-1 domain” value is on record as “enhanced the release of pro-OP-1 domain”. In test [2] (day 2 of culture), the “release of pro-OP-1 into culture media” value is given as “dramatic release of pro-OP-1”. Further, the “content of endogenous OP-1 in cartilage” value in test [2] (human cartilage explants, IL-1 culture, 48 hours) is “increase in the content of endogenous OP-1; also recorded: increase in the content of endogenous anabolic factor”. Moreover, in test [2] (human cartilage under catabolic conditions), the “processing of endogenous OP-1 from pro- into mature form” value was “processing of cartilage endogenous OP-1 from pro- into mature form”.
Take “Annexin V: calcium and phospholipid binding protein mixed with vesicles”: the “Fluorescence (Calcium Signal)” value is given as 29023 in test [3] (Lipid Ratio 65% PS/12.5% PC/12.5% PE/5% Chol) and 46454 in test [3] (Lipid Ratio 70% PS/12.5% PC/12.5% PE).
In the case of `CN1C(=O)CN=C(c2ccccc2)c2ccccc21` [BDA 250, 1,3-dihydro-1-methyl-5-phenyl-2H-1,4-benzodiazepine-2-one], the “calcium fluxes induced by annexin I” value in test [4] is listed as “inhibited”. Besides, the “calcium fluxes induced by annexin V” value in test [5] is listed as “no effect”. Moreover, in test [6], the “calcium fluxes induced by annexin III” value is “inhibited”.

Values taken from US6649366B2, “Methods and compositions related to modulators of annexin and cartilage homeostasis” (SmithKline Beecham Corporation, priority 1999, dated 2003).
